From ChEMBL document CHEMBL1201862, “PubChem BioAssay data set” (2004)
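Protocol summary: plate cells (96-well), add compound at 5 concentrations, incubate 48 h, interpolate endpoints linearly. GI50: concentration for 50% inhibition of growth.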 Activity calls are given as the source filed them. Rule as the data show it: active = GI50 up to about 1.1 µM and inactive = higher.

How the values were obtained:
Experiment in all cases: NCI-60 cell line screen, 48 h
[1] = test system: UACC-62
[2] = test system: DMS-273
[3] = test system: EKVX
[4] = test system: M19-MEL
[5] = test system: SR
[6] = test system: ACHN
[7] = test system: DU-145
[8] = test system: A549
[9] = test system: MDA-MB-231
[10] = test system: NCI/ADR-RES
[11] = test system: SK-MEL-28
[12] = test system: HCT-116
[13] = test system: HCC 2998
[14] = test system: HOP-62
[15] = test system: UACC-257
[16] = test system: OVCAR-5
[17] = test system: MCF7
[18] = test system: MOLT-4
[19] = test system: Malme-3M
[20] = test system: T47D

Measured: GI50

Cc1ccc2c(ccc(/C=C/c3ccc(O)c4ncccc34)[n+]2C)c1
inactive: [1] 8.04 µM | [2] 2.07 µM | [3] 18.1 µM | [4] 6.08 µM | [5] 2.74 µM | [6] 10 µM | [7] > 32.1 µM | [8] 15.1 µM | [9] > 33.2 µM | [10] > 49.5 µM | [11] 10.3 µM | [12] 3.87 µM | [13] 3.56 µM | [14] 6.85 µM | [15] 8.04 µM | [16] 25.2 µM | [17] 7.36 µM | [18] 1.75 µM | [19] 11.1 µM

C/C=C1\CN2CCc3c([nH]c4ccccc34)C2CC1CCO (centres undefined)
inactive: [2] > 100 µM | [3] > 100 µM | [4] > 100 µM | [5] > 100 µM | [6] > 100 µM | [8] > 100 µM | [11] > 100 µM | [12] > 100 µM | [13] > 100 µM | [14] > 100 µM | [15] > 100 µM | [16] > 100 µM | [18] > 100 µM | [19] > 100 µM

C=CCC1(CN(C)C)CC/C(=C\c2cc(OC)c(OC)c(OC)c2)C1=O (centres undefined)
inactive: [1] 21.3 µM | [2] > 10 µM | [3] 12.2 µM | [4] 37.1 µM | [5] 19.6 µM | [6] 25.8 µM | [8] 40.2 µM | [11] 34.2 µM | [12] 17.5 µM | [13] 18.1 µM | [14] 77.8 µM | [15] 27.7 µM | [16] 51.9 µM | [18] 27.5 µM | [19] 33.1 µM

CC(=O)OCC1OC(OC(C)=O)C(NC#N)C(OC(C)=O)C1OC(C)=O (centres undefined)
inactive: [1] > 100 µM | [2] > 100 µM | [4] > 100 µM | [5] 73.5 µM | [6] 49.7 µM | [8] > 100 µM | [11] > 100 µM | [12] > 100 µM | [13] > 100 µM | [14] > 100 µM | [16] > 100 µM | [18] 86.5 µM | [19] > 100 µM

Cc1ccc(NC(=O)C(=O)C2C(=O)N(c3ccccc3)N=C2N)cc1C (centres undefined)
inactive: [1] > 100 µM | [2] > 100 µM | [3] > 100 µM | [4] > 100 µM | [5] > 100 µM | [6] > 100 µM | [8] > 100 µM | [11] > 100 µM | [12] > 100 µM | [13] > 100 µM | [14] > 100 µM | [15] > 100 µM | [16] > 100 µM | [18] > 100 µM | [19] > 100 µM

CN(C)CCN(C)C(=O)C1CCCN1C(=O)OCc1ccccc1 (centres undefined)
inactive: [1] > 100 µM | [2] > 100 µM | [3] > 100 µM | [4] > 100 µM | [5] 38.6 µM | [6] > 100 µM | [8] > 100 µM | [11] > 100 µM | [12] > 100 µM | [13] > 100 µM | [14] > 100 µM | [15] > 100 µM | [16] > 100 µM | [18] > 100 µM | [19] > 100 µM

O=CN/C=C\c1cc(O)ccc1O
inactive: [1] 11.6 µM | [2] 7.11 µM | [3] 15.5 µM | [4] 11.8 µM | [5] 3.91 µM | [6] 15 µM | [8] > 100 µM | [11] 42.2 µM | [12] 10.6 µM | [13] > 100 µM | [14] 18.6 µM | [15] 11.7 µM | [16] > 100 µM | [18] 18.2 µM | [19] 13.8 µM

Cc1ccc2nc3c(C)c(Cl)c(=O)cc-3sc2c1
inactive: [1] 8.57 µM | [2] 22.4 µM | [3] 38.8 µM | [4] 4.68 µM | [5] 5.86 µM | [6] 18.5 µM | [7] 44 µM | [8] 16.7 µM | [9] 3.35 µM | [11] 32.7 µM | [12] 17.8 µM | [13] 40.3 µM | [20] 58.1 µM | [14] 27.5 µM | [15] 16.6 µM | [16] 34.3 µM | [17] 17.6 µM | [18] 4.98 µM | [19] > 45.7 µM

O=C/C(=C(/Cl)c1ccc(O)cc1)c1ccccc1
inactive: [1] 13.2 µM | [2] 18.8 µM | [3] 28.2 µM | [4] 19.7 µM | [5] > 100 µM | [6] 20.9 µM | [7] 62.5 µM | [8] 32.1 µM | [11] 20.7 µM | [12] 18.1 µM | [13] 71.9 µM | [15] 31.2 µM | [16] > 100 µM | [18] 16.6 µM | [19] 23.7 µM

Cc1cccc(NC2=NC(=O)C(CC(=O)Nc3ccccc3Cl)S2)c1 (centres undefined)
inactive: [1] > 100 µM | [2] > 100 µM | [3] > 100 µM | [4] > 100 µM | [5] > 100 µM | [6] > 100 µM | [8] > 100 µM | [11] > 100 µM | [12] > 100 µM | [13] > 100 µM | [15] > 100 µM | [16] > 100 µM | [18] > 100 µM | [19] > 100 µM

CCOC(=O)C1=C(Nc2cccc3ccccc23)OC/C1=N\NC(=O)c1ccccc1O
inactive: [1] 6.53 µM | [2] 9.59 µM | [3] 21.3 µM | [4] 19.1 µM | [5] 7.55 µM | [6] 8.63 µM | [8] 16.4 µM | [11] 22.3 µM | [12] 19.1 µM | [13] 54.1 µM | [14] 13.5 µM | [15] 22.9 µM | [16] 20.6 µM | [18] 12.6 µM | [19] 28.9 µM

O=S1(=O)C[C@H](O)[C@H](O)CS1
inactive: [1] > 100 µM | [2] > 100 µM | [3] > 100 µM | [4] > 100 µM | [5] > 100 µM | [6] > 100 µM | [8] > 100 µM | [11] > 100 µM | [12] > 100 µM | [13] > 100 µM | [14] > 100 µM | [15] > 100 µM | [16] > 100 µM | [18] > 100 µM | [19] > 100 µM

Cn1cnc([N+](=O)[O-])c1Sc1ccccn1
inactive: [1] > 100 µM | [2] > 100 µM | [3] > 100 µM | [4] > 100 µM | [5] 50.6 µM | [6] > 100 µM | [8] > 100 µM | [11] > 100 µM | [12] > 100 µM | [13] > 100 µM | [14] > 100 µM | [15] > 100 µM | [16] > 100 µM | [18] 38.5 µM | [19] 68.4 µM

BrC(Br)([P+](c1ccccc1)(c1ccccc1)c1ccccc1)[P+](c1ccccc1)(c1ccccc1)c1ccccc1
inactive: [1] 14.6 µM | [2] 14.6 µM | [3] 19.9 µM | [4] 13.3 µM | [5] 14 µM | [6] 17.7 µM | [8] 26.3 µM | [11] 16.6 µM | [12] 17.3 µM | [13] 17.4 µM | [14] 40.5 µM | [15] 19.5 µM | [16] 21.6 µM | [18] 7.91 µM | [19] 12.5 µM

OCC1CCC(n2cnc3c(O)ncnc32)O1 (centres undefined)
inactive: [1] > 100 µM | [2] > 100 µM | [3] > 100 µM | [4] > 100 µM | [5] > 1000 µM | [6] > 1000 µM | [7] > 1000 µM | [8] > 100 µM | [9] > 1000 µM | [10] > 100 µM | [11] > 100 µM | [12] > 100 µM | [13] > 100 µM | [20] > 1000 µM | [14] > 100 µM | [15] > 87.9 µM | [16] > 100 µM | [17] > 100 µM | [18] > 100 µM | [19] > 100 µM

CC(C)C1=Cc2ccc3c(c2C(=O)C1=O)CCCC3(C)C [MILTIRONE]
inactive: [1] 5.66 µM | [2] 4.34 µM | [3] 14.5 µM | [4] 2.56 µM | [5] 2.36 µM | [6] 5.82 µM | [8] 18.3 µM | [11] 5.62 µM | [12] 1.81 µM | [13] 18.4 µM | [14] 19.6 µM | [15] 3.08 µM | [16] 19.4 µM | [18] 2.19 µM | [19] 4.74 µM
